By Kd is commonly meant the constant that tells how readily two partners part at equilibrium. A high value points to a looser complex.

Results on three compounds are retold here after ChEMBL document CHEMBL1275297, “Homology modeling and molecular dynamics of CYP1A1 and CYP2B1 to explore the metabolism of aryl derivatives by docking and experimental assays” (Eur J Med Chem, 2010).

A short description of assay [1]: Binding affinity to human CYP1A1-heme complex.
The target in assay [2] is T1, Cytochrome P450 1A1 (Homo sapiens, UniProt P04798).
T1 sequence (P04798 whole entry): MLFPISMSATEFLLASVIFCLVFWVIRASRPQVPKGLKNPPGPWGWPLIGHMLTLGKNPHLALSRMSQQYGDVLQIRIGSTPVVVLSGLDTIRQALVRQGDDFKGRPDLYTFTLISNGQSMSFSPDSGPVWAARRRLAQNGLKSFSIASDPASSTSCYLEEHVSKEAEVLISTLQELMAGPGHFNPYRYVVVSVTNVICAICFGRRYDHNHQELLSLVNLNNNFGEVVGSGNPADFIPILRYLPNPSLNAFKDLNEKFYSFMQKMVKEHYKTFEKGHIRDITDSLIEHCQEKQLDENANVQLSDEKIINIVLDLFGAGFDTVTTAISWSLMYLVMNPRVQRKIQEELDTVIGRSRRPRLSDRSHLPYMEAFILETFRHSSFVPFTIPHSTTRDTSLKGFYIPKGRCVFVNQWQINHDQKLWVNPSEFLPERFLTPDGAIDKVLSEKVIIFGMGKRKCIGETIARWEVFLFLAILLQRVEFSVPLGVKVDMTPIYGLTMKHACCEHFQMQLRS
Kind of assay: Binding affinity to human CYP1A1. The assay is classed as ADME.

Assay [3] in a line: Binding affinity to rat CYP2B1-heme complex.
The target in assay [4] is T2, Cytochrome P450 2B1 (Rattus norvegicus, UniProt P00176).
T2 sequence (P00176 whole entry): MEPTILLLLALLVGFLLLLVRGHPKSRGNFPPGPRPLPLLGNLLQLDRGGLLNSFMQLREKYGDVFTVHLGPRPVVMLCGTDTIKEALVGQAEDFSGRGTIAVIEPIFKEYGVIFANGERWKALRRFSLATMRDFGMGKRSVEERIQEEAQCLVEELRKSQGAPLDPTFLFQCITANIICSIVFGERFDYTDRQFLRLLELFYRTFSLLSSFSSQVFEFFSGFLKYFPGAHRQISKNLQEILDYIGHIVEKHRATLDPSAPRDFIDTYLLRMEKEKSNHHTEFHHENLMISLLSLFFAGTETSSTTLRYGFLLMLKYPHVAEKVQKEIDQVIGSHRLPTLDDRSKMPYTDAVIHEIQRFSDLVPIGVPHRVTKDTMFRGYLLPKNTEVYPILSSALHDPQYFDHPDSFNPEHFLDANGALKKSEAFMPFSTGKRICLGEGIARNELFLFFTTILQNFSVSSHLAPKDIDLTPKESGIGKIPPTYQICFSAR
Description: Binding affinity to rat CYP2B1. The assay is classed as ADME.

On to `CC(=O)Nc1ccc(O)cc1` [ACETAMINOPHEN], for which the dissociation constant (Kd) was 5.79 µM in assay [1], 19.1 µM in assay [2] and 6640 nM in assay [3].

For the compound `O=C(O)CCC(=O)Nc1ccc(O)cc1`, the dissociation constant (Kd) in assay [1] was 0.789 µM; in assay [2] it was 2.25 µM; in assay [4], 1.12 µM; in assay [3], 1760 nM.

`O=C1CCC(=O)N1c1ccc(O)cc1`: the Kd is 3.96 µM in assay [1], 13.5 µM in assay [2], 24 µM in assay [4] and 1570 nM in assay [3].
